In patent US12577228B2, “Dihydrocyclopenta-isoquinoline-sulfonamide derivatives compounds” (UCB Biopharma SRL, priority 2019, dated 2026):
Where a name gives a salt, the structure may show the parent alone.

Each compound was assayed against T1, IgE-Tb / soluble IgE receptor FcεRIα with a Y131A mutation (Homo sapiens, UniProt P01854, N146Q/N252Q) (assay: in vitro FRET assay: binding of IgE-Tb to receptor FcεRIα-Y131A-AF488 and its inhibition by compounds). Details: 5 nM IgE-Tb, 25 nM FcεRIα-Y131A-AF488, 2 hours at room temperature; read-out: FRET IC50 range.
T1 construct: fused on or other part: Terbium chelate (LanthaScreen amine-reactive) on IgE-Fc; Alexa Fluor 488 hydrazide on the oxidised glycans of sFcεRIα; Both are labels and no part of the key
T1 sequence (P01854 104-427 N146Q/N252Q): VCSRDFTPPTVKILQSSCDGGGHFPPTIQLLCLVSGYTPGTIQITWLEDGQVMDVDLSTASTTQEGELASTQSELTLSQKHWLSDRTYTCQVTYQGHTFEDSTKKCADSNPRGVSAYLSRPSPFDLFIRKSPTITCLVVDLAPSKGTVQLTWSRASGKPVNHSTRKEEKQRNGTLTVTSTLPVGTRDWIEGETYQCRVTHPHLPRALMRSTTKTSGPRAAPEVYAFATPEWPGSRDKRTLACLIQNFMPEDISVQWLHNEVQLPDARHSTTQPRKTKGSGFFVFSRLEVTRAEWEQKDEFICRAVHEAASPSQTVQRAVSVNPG
T1 sequence (P12319 26-201 Y156A partner): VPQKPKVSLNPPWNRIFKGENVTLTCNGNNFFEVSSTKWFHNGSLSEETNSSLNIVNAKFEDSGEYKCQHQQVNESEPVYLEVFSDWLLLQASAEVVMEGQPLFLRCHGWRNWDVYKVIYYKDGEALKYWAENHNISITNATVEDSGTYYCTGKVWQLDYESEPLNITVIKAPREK

Row | SMILES | IC50 [nM]
1 | CCNc1c(NC2Cc3cc4cnc(C5CC5)cc4c(S(=O)(=O)NCC(C)C)c3C2)c(=O)c1=O (stereo not shown) [Example 53, 3-cyclopropyl-7-[[2-(ethylamino)-3,4-dioxocyclobuten-1-yl]amino]-N-(2-methylpropyl)-7,8-dihydro-6H-cyclopenta[g]isoquinoline-5-sulfonamide] | 10 to 50
2 | CC(C)CNS(=O)(=O)c1c2c(cc3cnc(C4CC4)cc13)CC(Nc1nncn1CC1CC1)C2 (stereo not shown) [Example 5, 3-cyclopropyl-7-[[4-(cyclopropylmethyl)-1,2,4-triazol-3-yl]amino]-N-(2-methylpropyl)-7,8-dihydro-6H-cyclopenta[g]isoquinoline-5-sulfonamide] | 10 to 50
3 | CC(C)CNS(=O)(=O)c1c2c(cc3cnc(C4CC4)cc13)C(O)CC2 (stereo not shown) [Example 47, 3-cyclopropyl-8-hydroxy-N-(2-methylpropyl)-7,8-dihydro-6H-cyclopenta[g]isoquinoline-5-sulfonamide] | 100 to 2000
4 | CC(C)(F)CNS(=O)(=O)c1c2c(cc3cnc(C4CC4)cc13)CC(NC1=CC(=O)OC1)C2 (stereo not shown) [Example 142, 3-cyclopropyl-N-(2-fluoro-2-methylpropyl)-7-[(5-oxo-2H-furan-3-yl)amino]-7,8-dihydro-6H-cyclopenta[g]isoquinoline-5-sulfonamide] | 100 to 2000
5 | CC(C)(F)CNS(=O)(=O)c1c2c(cc3cnc(C4CC4)cc13)C[C@@H](Nc1ccc(F)nc1)C2 [Example 73, (7R)-3-cyclopropyl-N-(2-fluoro-2-methylpropyl)-7-[(6-fluoropyridin-3-yl)amino]-7,8-dihydro-6H-cyclopenta[g]isoquinoline-5-sulfonamide] | 10 to 50
6 | CC(C)(F)CNS(=O)(=O)c1c2c(cc3cnc(C4CC4)cc13)CC(c1ccno1)C2 (stereo not shown) [Example 79, 3-cyclopropyl-N-(2-fluoro-2-methylpropyl)-7-(1,2-oxazol-5-yl)-7,8-dihydro-6H-cyclopenta[g]isoquinoline-5-sulfonamide] | 100 to 2000
7 | CC(C)(F)CNS(=O)(=O)c1c2c(cc3cnc(C4CC4)cc13)C[C@@H](NC(=O)c1ccc3c(c1)CN(C(=O)OC(C)(C)C)C3)C2 [Example 136, tert-butyl 5-[[(7R)-3-cyclopropyl-5-[(2-fluoro-2-methylpropyl)sulfamoyl]-7,8-dihydro-6H-cyclopenta[g]isoquinolin-7-yl]carbamoyl]-1,3-dihydroisoindole-2-carboxylate] | 10 to 50
8 | CC(C)CNS(=O)(=O)c1c2c(cc3cnc(C4CC4)cc13)CC(Nc1ccc(C(=O)O)nc1)C2 (stereo not shown) [Example 88, 5-[[3-cyclopropyl-5-(isobutylsulfamoyl)-7,8-dihydro-6H-cyclopenta[g]isoquinolin-7-yl]amino]pyridine-2-carboxylic acid; hydrochloride] | 50 to 100
9 | CC(C)(F)CNS(=O)(=O)c1c2c(cc3cnc(C4CC4)cc13)C[C@@H](Nc1cnc(C(=O)O)c3ccccc13)C2 [Example 138, lithium; 4-[[(7R)-3-cyclopropyl-5-[(2-fluoro-2-methyl-propyl)sulfamoyl]-7,8-dihydro-6H-cyclopenta[g]isoquinolin-7-yl]amino]isoquinoline-1-carboxylate] | 50 to 100
10 | CC(C)(F)CNS(=O)(=O)c1c2c(cc3cnc(C4CC4)cc13)CC(NC(=O)Cc1ccccc1)C2 (stereo not shown) [Example 87, N-[3-cyclopropyl-5-[(2-fluoro-2-methylpropyl)sulfamoyl]-7,8-dihydro-6H-cyclopenta[g]isoquinolin-7-yl]-2-phenylacetamide] | 50 to 100
11 | CC(C)(F)CNS(=O)(=O)c1c2c(cc3cnc(C4CC4)cc13)C[C@@H](Nc1ccc(C(N)=O)nc1)C2 [Example 11, 5-[[(7R)-3-cyclopropyl-5-[(2-fluoro-2-methylpropyl)sulfamoyl]-7,8-dihydro-6H-cyclopenta[g]isoquinolin-7-yl]amino]pyridine-2-carboxamide] | 10 to 50
12 | O=C(O)c1ccc(NC2Cc3cc4cnc(C5CC5)cc4c(S(=O)(=O)NC4CC(F)(F)C4)c3C2)cn1 (stereo not shown) [Example 89, 5-[[3-cyclopropyl-5-[(3,3-difluorocyclobutyl)sulfamoyl]-7,8-dihydro-6H-cyclopenta[g]isoquinolin-7-yl]amino]pyridine-2-carboxylic acid] | 100 to 2000
13 | CC(C)(F)CNS(=O)(=O)c1c2c(cc3cnc(C4CC4)cc13)CC(Nc1cccnc1)C2 (stereo not shown) [Example 86, 3-cyclopropyl-N-(2-fluoro-2-methylpropyl)-7-(pyridin-3-ylamino)-7,8-dihydro-6H-cyclopenta[g]isoquinoline-5-sulfonamide] | 10 to 50
14 | CC(C)(F)CNS(=O)(=O)c1c2c(cc3cnc(C4CC4)cc13)CC(Nc1ccc(S(C)(=N)=O)nc1)C2 (stereo not shown) [Example 35, 3-cyclopropyl-N-(2-fluoro-2-methylpropyl)-7-[[6-(methylsulfonimidoyl)pyridin-3-yl]amino]-7,8-dihydro-6H-cyclopenta[g]isoquinoline-5-sulfonamide] | 10 to 50
15 | Cn1cc2c(NC3Cc4cc5cnc(C6CC6)cc5c(S(=O)(=O)NCC5(O)COC5)c4C3)cncc2n1 (stereo not shown) [Example 14, 3-cyclopropyl-N-[(3-hydroxyoxetan-3-yl)methyl]-7-[(2-methylpyrazolo[3,4-c]pyridin-4-yl)amino]-7,8-dihydro-6H-cyclopenta[g]isoquinoline-5-sulfonamide] | 10 to 50
16 | Cn1nnc(-c2ccc(N[C@@H]3Cc4cc5cnc(C6CC6)cc5c(S(=O)(=O)NCC(C)(C)F)c4C3)cc2)n1 [Example 125, (7R)-3-cyclopropyl-N-(2-fluoro-2-methylpropyl)-7-[4-(2-methyltetrazol-5-yl)anilino]-7,8-dihydro-6H-cyclopenta[g]isoquinoline-5-sulfonamide] | 50 to 100
17 | CC(C)(F)CNS(=O)(=O)c1c2c(cc3cnc(C4CC4)cc13)C[C@@H](Nc1cncc(Oc3cc[nH]c(=O)c3)c1)C2 [Example 75, (7R)-3-cyclopropyl-N-(2-fluoro-2-methylpropyl)-7-[[5-[(2-oxo-1H-pyridin-4-yl)oxy]pyridin-3-yl]amino]-7,8-dihydro-6H-cyclopenta[g]isoquinoline-5-sulfonamide] | 10 to 50
18 | Cn1ncc(NC2Cc3cc4c(F)nc(C5CC5)cc4c(S(=O)(=O)NCC(C)(C)F)c3C2)cc1=O (stereo not shown) [Example 29, 3-cyclopropyl-1-fluoro-N-(2-fluoro-2-methyl-propyl)-7-[(1-methyl-6-oxo-pyridazin-4-yl)amino]-7,8-dihydro-6H-cyclopenta[g]isoquinoline-5-sulfonamide] | 10 to 50
19 | Cn1cc(C(=O)C(=O)N[C@@H]2Cc3cc4cnc(C5CC5)cc4c(S(=O)(=O)NCC(C)(C)F)c3C2)cn1 [Example 137, N-[(7R)-3-cyclopropyl-5-[(2-fluoro-2-methylpropyl)sulfamoyl]-7,8-dihydro-6H-cyclopenta[g]isoquinolin-7-yl]-2-(1-methylpyrazol-4-yl)-2-oxoacetamide] | 100 to 2000
20 | CC(C)(F)CNS(=O)(=O)c1c2c(cc3nnc(C4CC4)cc13)CC(NC(=O)OC(C)(C)C)C2 (stereo not shown) [Example 65, tert-butyl N-[3-cyclopropyl-5-[(2-fluoro-2-methylpropyl)sulfamoyl]-7,8-dihydro-6H-cyclopenta[g]cinnolin-7-yl]carbamate] | 100 to 2000
21 | Cn1ncc(NC2Cc3cc4cnc(C5CC5)cc4c(S(=O)(=O)NCC(C)(C)F)c3C2)cc1=O (stereo not shown) [Example 140, 3-cyclopropyl-N-(2-fluoro-2-methylpropyl)-7-[(1-methyl-6-oxopyridazin-4-yl)amino]-7,8-dihydro-6H-cyclopenta[g]isoquinoline-5-sulfonamide] | 10 to 50
22 | CC(C)(F)CNS(=O)(=O)c1c2c(cc3cnc(C4CC4)cc13)CC(Nc1cncc3nccn13)C2 (stereo not shown) [Example 109, 3-cyclopropyl-N-(2-fluoro-2-methylpropyl)-7-(imidazo[1,2-a]pyrazin-5-ylamino)-7,8-dihydro-6H-cyclopenta[g]isoquinoline-5-sulfonamide] | 10 to 50
23 | Cn1nc(O)cc1NC1Cc2cc3cnc(C4CC4)cc3c(S(=O)(=O)NCC(C)(C)F)c2C1 (stereo not shown) [Example 112, 3-cyclopropyl-N-(2-fluoro-2-methylpropyl)-7-[(5-hydroxy-2-methylpyrazol-3-yl)amino]-7,8-dihydro-6H-cyclopenta[g]isoquinoline-5-sulfonamide] | 100 to 2000
24 | Cc1ccc(S(=O)(=O)c2cncc(N[C@@H]3Cc4cc5cnc(C6CC6)cc5c(S(=O)(=O)NCC(C)(C)F)c4C3)c2)cn1 [Example 43, (7R)-3-cyclopropyl-N-(2-fluoro-2-methylpropyl)-7-[[5-(6-methylpyridin-3-yl)sulfonylpyridin-3-yl]amino]-7,8-dihydro-6H-cyclopenta[g]isoquinoline-5-sulfonamide] | 10 to 50
25 | Cc1ccc(Oc2cncc(N[C@@H]3Cc4cc5cnc(C6CC6)cc5c(S(=O)(=O)NCC(C)(C)F)c4C3)c2)cn1 [Example 10, (7R)-3-cyclopropyl-N-(2-fluoro-2-methylpropyl)-7-[[5-(6-methylpyridin-3-yl)oxypyridin-3-yl]amino]-7,8-dihydro-6H-cyclopenta[g]isoquinoline-5-sulfonamide] | 1 to 10
26 | CC(=O)NS(=O)(=O)c1ccc(N[C@@H]2Cc3cc4cnc(C5CC5)cc4c(S(=O)(=O)NCC(C)(C)F)c3C2)cn1 [Example 95, N-[5-[[(7R)-3-cyclopropyl-5-[(2-fluoro-2-methylpropyl)sulfamoyl]-7,8-dihydro-6H-cyclopenta[g]isoquinolin-7-yl]amino]pyridin-2-yl]sulfonylacetamide] | 50 to 100
27 | CC(C)CNS(=O)(=O)c1c2c(cc3cnc(C4CC4)cc13)CC(NC1=CC(=O)CC1)C2 (stereo not shown) [Example 4, 3-cyclopropyl-N-(2-methylpropyl)-7-[(3-oxocyclopenten-1-yl)amino]-7,8-dihydro-6H-cyclopenta[g]isoquinoline-5-sulfonamide] | 10 to 50
28 | CC(C)CNS(=O)(=O)c1c2c(cc3cnc(C4CC4)cc13)CC(Nc1ccnnc1)C2 (stereo not shown) [Example 103, 3-cyclopropyl-N-isobutyl-7-(pyridazin-4-ylamino)-7,8-dihydro-6H-cyclopenta[g]isoquinoline-5-sulfonamide; formic acid] | 10 to 50
